Laboratory results as given in US7772180B2, “Hepatitis C virus inhibitors” (Bristol-Myers Squibb Company, priority 2006, dated 2010).

Experiments:
[1] = target: T1, HCV NS3/4A protease complex, BMS strain (UniProt P27958, species not given/STRAIN_BMS); experiment: FRET peptide assay to monitor HCV NS3/4A proteolytic activity (BMS strain); format: biochemical, Hepatitis C virus (genotype 1a); details: read-out: HCV Protease (IC50); NS3/4A BMS strain; activity range class
T1 construct: other: NS3/4A BMS strain; activity range class; numeric values, unit not given; said of H77 and J4L6S; fused on or other part: A three-lysine solubilising tail at the C-terminus of NS4A; A His tag is implied by the pET21b vector and Ni-NTA purification; Both are printed for the H77 and J4L6S constructs and apply to BMS by inference
T1 sequence (P27958 1027-1657, change not shown, one chain of several): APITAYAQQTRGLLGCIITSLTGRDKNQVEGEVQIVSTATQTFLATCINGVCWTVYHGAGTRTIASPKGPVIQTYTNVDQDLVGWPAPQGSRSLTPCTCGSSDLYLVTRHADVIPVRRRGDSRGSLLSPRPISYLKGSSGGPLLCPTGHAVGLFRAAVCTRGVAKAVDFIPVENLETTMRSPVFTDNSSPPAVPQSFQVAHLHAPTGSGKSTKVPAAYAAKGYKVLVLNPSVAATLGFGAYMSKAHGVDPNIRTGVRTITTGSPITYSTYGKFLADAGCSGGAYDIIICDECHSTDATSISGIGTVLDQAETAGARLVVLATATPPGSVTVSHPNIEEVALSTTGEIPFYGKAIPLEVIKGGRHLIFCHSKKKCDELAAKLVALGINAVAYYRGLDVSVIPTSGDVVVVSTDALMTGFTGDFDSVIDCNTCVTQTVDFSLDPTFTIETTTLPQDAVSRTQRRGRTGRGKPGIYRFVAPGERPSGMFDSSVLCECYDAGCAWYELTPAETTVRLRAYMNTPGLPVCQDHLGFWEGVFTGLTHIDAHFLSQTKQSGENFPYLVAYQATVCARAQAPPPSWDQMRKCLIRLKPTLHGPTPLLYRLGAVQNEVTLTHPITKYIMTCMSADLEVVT
How it was run: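 Inhibition measured by real-time fluorescence increase as the protease cleaves RET S1 FRET depsipeptide (2 μM final). Enzyme: >90% pure BMS-strain (1a) NS3/4A at 2-3 nM final, or 300 pM with 50 μg/ml BSA for potent compounds. Buffer: 50 mM HEPES pH 7.5, 0.15 M NaCl, 0.1% Triton, 15% glycerol, 10 mM βME.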

[2] = test system: HCV replicon (strain 1b) in HUH-7 cells; experiment: HCV replicon FRET assay; format: cell-based, Hepatitis C virus; details: Hepatitis C virus, Huh-7, read-out: HCV Pro Replicon (EC50), HCV replicon cell assay; activity range class

Row | SMILES | IC50 [1] [nM] | EC50 [2] [nM]
1 | C=C[C@@H]1C[C@]1(NC(=O)[C@@H]1C[C@@H](Oc2ncc(OC)c3ccc(Cl)cc23)CN1C(=O)[C@@H](Nc1cccc(C(=O)OC(C)(C)C)c1)C(C)(C)C)C(=O)NS(=O)(=O)C1CC1 [210 first isomer, N-(3-(tert-butoxycarbonyl)phenyl)-3-methyl-L-valyl-(4R)-4-((7-chloro-4-methoxy-1-isoquinolinyl)oxy)-N-((1R,2S)-1-((cyclopropylsulfonyl)carbamoyl)-2-vinylcyclopropyl)-L-prolinamide] | 0.6 to 20 | 3 to 100
2 | C=C[C@@H]1C[C@]1(NC(=O)[C@@H]1C[C@@H](Oc2ncc(OC)c3ccc(Cl)cc23)CN1C(=O)[C@H](Nc1cccc(C(=O)OC(C)(C)C)c1)C(C)(C)C)C(=O)NS(=O)(=O)C1CC1 [210 second isomer, N-(3-(tert-butoxycarbonyl)phenyl)-3-methyl-D-valyl-(4R)-4-((7-chloro-4-methoxy-1-isoquinolinyl)oxy)-N-((1R,2S)-1-((cyclopropylsulfonyl)carbamoyl)-2-vinylcyclopropyl)-L-prolinamide] | 20 to 200 | 100 to 1000
3 | C=C[C@@H]1C[C@]1(NC(=O)[C@@H]1C[C@@H](Oc2ncc(OC)c3ccc(Cl)cc23)CN1C(=O)[C@@H](Nc1cccc(C(=O)O)c1)C(C)(C)C)C(=O)NS(=O)(=O)C1CC1 [211 first isomer, N-(3-carboxyphenyl)-3-methyl-L-valyl-(4R)-4-((7-chloro-4-methoxy-1-isoquinolinyl)oxy)-N-((1R,2S)-1-((cyclopropylsulfonyl)carbamoyl)-2-vinylcyclopropyl)-L-prolinamide] | 0.6 to 20 | 3 to 100
4 | C=C[C@@H]1C[C@]1(NC(=O)[C@@H]1C[C@@H](Oc2ncc(OC)c3ccc(Cl)cc23)CN1C(=O)[C@H](Nc1cccc(C(=O)O)c1)C(C)(C)C)C(=O)NS(=O)(=O)C1CC1 [211 second isomer, N-(3-carboxyphenyl)-3-methyl-D-valyl-(4R)-4-((7-chloro-4-methoxy-1-isoquinolinyl)oxy)-N-((1R,2S)-1-((cyclopropylsulfonyl)carbamoyl)-2-vinylcyclopropyl)-L-prolinamide] | > 200 | 3 to 100
5 | C=C[C@@H]1C[C@]1(NC(=O)[C@@H]1C[C@@H](Oc2ncc(OC)c3ccc(Cl)cc23)CN1C(=O)[C@@H](Nc1cccc(C(=O)NC(C)(C)C)c1)C(C)(C)C)C(=O)NS(=O)(=O)C1CC1 [212 first isomer, N-(3-(tert-butylcarbamoyl)phenyl)-3-methyl-L-valyl-(4R)-4-((7-chloro-4-methoxy-1-isoquinolinyl)oxy)-N-((1R,2S)-1-((cyclopropylsulfonyl)carbamoyl)-2-vinylcyclopropyl)-L-prolinamide] | > 200 | 100 to 1000
6 | C=C[C@@H]1C[C@]1(NC(=O)[C@@H]1C[C@@H](Oc2ncc(OC)c3ccc(Cl)cc23)CN1C(=O)[C@H](Nc1cccc(C(=O)NC(C)(C)C)c1)C(C)(C)C)C(=O)NS(=O)(=O)C1CC1 [212 second isomer, N-(3-(tert-butylcarbamoyl)phenyl)-3-methyl-D-valyl-(4R)-4-((7-chloro-4-methoxy-1-isoquinolinyl)oxy)-N-((1R,2S)-1-((cyclopropylsulfonyl)carbamoyl)-2-vinylcyclopropyl)-L-prolinamide] | 0.6 to 20 | 3 to 100
7 | C=C[C@@H]1C[C@]1(NC(=O)[C@@H]1C[C@@H](Oc2ncc(OC)c3ccc(Cl)cc23)CN1C(=O)[C@@H](Nc1ccc(S(=O)(=O)NC(C)(C)C)cc1)C(C)(C)C)C(=O)NS(=O)(=O)C1CC1 [214 first isomer, N-(4-(tert-butylsulfamoyl)phenyl)-3-methyl-L-valyl-(4R)-4-((7-chloro-4-methoxy-1-isoquinolinyl)oxy)-N-((1R,2S)-1-((cyclopropylsulfonyl)carbamoyl)-2-vinylcyclopropyl)-L-prolinamide] | 0.6 to 20 | 100 to 1000
8 | C=C[C@@H]1C[C@]1(NC(=O)[C@@H]1C[C@@H](Oc2ncc(OC)c3ccc(Cl)cc23)CN1C(=O)[C@@H](Nc1cccc(C(N)=O)c1)C(C)(C)C)C(=O)NS(=O)(=O)C1CC1 [217 first isomer, N-(3-carbamoylphenyl)-3-methyl-L-valyl-(4R)-4-((7-chloro-4-methoxy-1-isoquinolinyl)oxy)-N-((1R,2S)-1-((cyclopropylsulfonyl)carbamoyl)-2-vinylcyclopropyl)-L-prolinamide] | 0.6 to 20 | 3 to 100
9 | C=C[C@@H]1C[C@]1(NC(=O)[C@@H]1C[C@@H](Oc2ncc(OC)c3ccc(Cl)cc23)CN1C(=O)[C@@H](Nc1cccc(C(=O)N(C)C)c1)C(C)(C)C)C(=O)NS(=O)(=O)C1CC1 [218 first isomer, N-(3-(dimethylcarbamoyl)phenyl)-3-methyl-L-valyl-(4R)-4-((7-chloro-4-methoxy-1-isoquinolinyl)oxy)-N-((1R,2S)-1-((cyclopropylsulfonyl)carbamoyl)-2-vinylcyclopropyl)-L-prolinamide] | 0.6 to 20 | 3 to 100
10 | C=C[C@@H]1C[C@]1(NC(=O)[C@@H]1C[C@@H](Oc2ncc(OC)c3ccc(Cl)cc23)CN1C(=O)[C@H](Nc1cccc(C(=O)N(C)C)c1)C(C)(C)C)C(=O)NS(=O)(=O)C1CC1 [218 second isomer, N-(3-(dimethylcarbamoyl)phenyl)-3-methyl-D-valyl-(4R)-4-((7-chloro-4-methoxy-1-isoquinolinyl)oxy)-N-((1R,2S)-1-((cyclopropylsulfonyl)carbamoyl)-2-vinylcyclopropyl)-L-prolinamide] | > 200 | > 1000
11 | C=C[C@@H]1C[C@]1(NC(=O)[C@@H]1C[C@@H](Oc2ncc(OC)c3ccc(Cl)cc23)CN1C(=O)[C@@H](Nc1cccc(S(=O)(=O)N(C)C)c1)C(C)(C)C)C(=O)NS(=O)(=O)C1CC1 [219 first isomer, N-(3-(dimethylsulfamoyl)phenyl)-3-methyl-L-valyl-(4R)-4-((7-chloro-4-methoxy-1-isoquinolinyl)oxy)-N-((1R,2S)-1-((cyclopropylsulfonyl)carbamoyl)-2-vinylcyclopropyl)-L-prolinamide] | > 200 | > 1000
12 | C=C[C@@H]1C[C@]1(NC(=O)[C@@H]1C[C@@H](Oc2ncc(OC)c3ccc(Cl)cc23)CN1C(=O)[C@H](Nc1cccc(S(=O)(=O)N(C)C)c1)C(C)(C)C)C(=O)NS(=O)(=O)C1CC1 [219 second isomer, N-(3-(dimethylsulfamoyl)phenyl)-3-methyl-D-valyl-(4R)-4-((7-chloro-4-methoxy-1-isoquinolinyl)oxy)-N-((1R,2S)-1-((cyclopropylsulfonyl)carbamoyl)-2-vinylcyclopropyl)-L-prolinamide] | 0.6 to 20 | 3 to 100
13 | C=C[C@@H]1C[C@]1(NC(=O)[C@@H]1C[C@@H](Oc2ncc(OC)c3ccc(Cl)cc23)CN1C(=O)[C@@H](Nc1ccc(F)c(F)c1)C(C)(C)C)C(=O)NS(=O)(=O)C1CC1 [220 first isomer, N-(3,4-difluorophenyl)-3-methyl-L-valyl-(4R)-4-((7-chloro-4-methoxy-1-isoquinolinyl)oxy)-N-((1R,2S)-1-((cyclopropylsulfonyl)carbamoyl)-2-vinylcyclopropyl)-L-prolinamide] | 0.6 to 20 | 3 to 100
